Assay results taken from US20240316022A1 (TYRA BIOSCIENCES, INC., priority 2021, published 2024).

Tests used:
Experiment in all cases: Kinase binding assay (kinase-tagged T7 phage, qPCR), Kd
[1] = molecular target: T1, FGFR3 (Homo sapiens, UniProt P22607); conditions: read-out: FGFR3 (Kd nM)
T1 construct: made in house; host or cells: E. coli derived from BL21, infected with T7 phage

[2] = molecular target: T2, FGFR4 (Homo sapiens, UniProt P22455); conditions: read-out: FGFR4 (Kd nM)
T2 construct: made in house; host or cells: E. coli derived from BL21, infected with T7 phage
T2 sequence (P22455 22-802): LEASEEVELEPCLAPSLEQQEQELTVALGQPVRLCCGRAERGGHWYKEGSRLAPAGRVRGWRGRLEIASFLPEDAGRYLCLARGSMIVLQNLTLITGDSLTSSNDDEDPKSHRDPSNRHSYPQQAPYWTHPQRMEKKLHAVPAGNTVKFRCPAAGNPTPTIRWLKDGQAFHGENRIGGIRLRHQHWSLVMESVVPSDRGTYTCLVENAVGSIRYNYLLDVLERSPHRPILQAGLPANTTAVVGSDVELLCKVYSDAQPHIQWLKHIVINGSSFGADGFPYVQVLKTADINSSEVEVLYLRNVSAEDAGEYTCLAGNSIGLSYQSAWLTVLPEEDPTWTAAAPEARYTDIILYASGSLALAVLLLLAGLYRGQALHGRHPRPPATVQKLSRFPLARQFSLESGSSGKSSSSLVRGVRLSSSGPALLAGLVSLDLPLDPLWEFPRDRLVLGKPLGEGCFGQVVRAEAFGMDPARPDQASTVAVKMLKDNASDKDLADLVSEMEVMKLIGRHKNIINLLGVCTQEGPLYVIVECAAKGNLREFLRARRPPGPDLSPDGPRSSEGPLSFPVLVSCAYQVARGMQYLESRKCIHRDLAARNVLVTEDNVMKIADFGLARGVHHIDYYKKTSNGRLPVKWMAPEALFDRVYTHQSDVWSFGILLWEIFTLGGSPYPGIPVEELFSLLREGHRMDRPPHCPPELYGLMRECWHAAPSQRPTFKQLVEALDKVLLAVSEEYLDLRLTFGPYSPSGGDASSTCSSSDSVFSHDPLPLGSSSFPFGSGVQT

[3] = molecular target: T3, FGFR2 (Homo sapiens, UniProt P21802); conditions: read-out: FGFR2 (Kd nM)
T3 construct: made in house; host or cells: E. coli derived from BL21, infected with T7 phage
T3 sequence (P21802 22-821): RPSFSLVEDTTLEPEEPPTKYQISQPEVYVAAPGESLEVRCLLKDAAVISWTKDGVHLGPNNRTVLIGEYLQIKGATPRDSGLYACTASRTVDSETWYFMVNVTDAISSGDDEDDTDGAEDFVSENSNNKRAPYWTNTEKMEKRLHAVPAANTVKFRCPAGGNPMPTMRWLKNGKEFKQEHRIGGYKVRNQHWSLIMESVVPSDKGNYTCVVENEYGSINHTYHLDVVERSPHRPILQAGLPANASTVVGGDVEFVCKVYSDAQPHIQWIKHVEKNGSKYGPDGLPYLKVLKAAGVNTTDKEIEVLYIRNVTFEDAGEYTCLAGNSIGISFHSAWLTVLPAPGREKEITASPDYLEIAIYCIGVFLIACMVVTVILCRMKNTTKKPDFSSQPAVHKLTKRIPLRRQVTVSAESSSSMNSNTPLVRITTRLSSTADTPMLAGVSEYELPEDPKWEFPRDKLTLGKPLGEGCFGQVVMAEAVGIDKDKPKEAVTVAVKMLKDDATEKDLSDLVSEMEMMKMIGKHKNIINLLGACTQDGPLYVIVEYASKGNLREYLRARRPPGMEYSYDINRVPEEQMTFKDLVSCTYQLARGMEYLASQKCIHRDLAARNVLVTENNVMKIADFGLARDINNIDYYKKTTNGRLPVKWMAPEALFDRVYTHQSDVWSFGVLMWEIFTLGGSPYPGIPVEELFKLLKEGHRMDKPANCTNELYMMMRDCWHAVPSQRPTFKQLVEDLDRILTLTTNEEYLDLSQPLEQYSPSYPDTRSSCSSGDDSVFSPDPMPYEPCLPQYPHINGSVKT

[4] = molecular target: T4, FGFR1 (Homo sapiens, UniProt P11362); conditions: read-out: FGFR1 (Kd nM)
T4 construct: made in house; host or cells: E. coli derived from BL21, infected with T7 phage
T4 sequence (P11362 22-822): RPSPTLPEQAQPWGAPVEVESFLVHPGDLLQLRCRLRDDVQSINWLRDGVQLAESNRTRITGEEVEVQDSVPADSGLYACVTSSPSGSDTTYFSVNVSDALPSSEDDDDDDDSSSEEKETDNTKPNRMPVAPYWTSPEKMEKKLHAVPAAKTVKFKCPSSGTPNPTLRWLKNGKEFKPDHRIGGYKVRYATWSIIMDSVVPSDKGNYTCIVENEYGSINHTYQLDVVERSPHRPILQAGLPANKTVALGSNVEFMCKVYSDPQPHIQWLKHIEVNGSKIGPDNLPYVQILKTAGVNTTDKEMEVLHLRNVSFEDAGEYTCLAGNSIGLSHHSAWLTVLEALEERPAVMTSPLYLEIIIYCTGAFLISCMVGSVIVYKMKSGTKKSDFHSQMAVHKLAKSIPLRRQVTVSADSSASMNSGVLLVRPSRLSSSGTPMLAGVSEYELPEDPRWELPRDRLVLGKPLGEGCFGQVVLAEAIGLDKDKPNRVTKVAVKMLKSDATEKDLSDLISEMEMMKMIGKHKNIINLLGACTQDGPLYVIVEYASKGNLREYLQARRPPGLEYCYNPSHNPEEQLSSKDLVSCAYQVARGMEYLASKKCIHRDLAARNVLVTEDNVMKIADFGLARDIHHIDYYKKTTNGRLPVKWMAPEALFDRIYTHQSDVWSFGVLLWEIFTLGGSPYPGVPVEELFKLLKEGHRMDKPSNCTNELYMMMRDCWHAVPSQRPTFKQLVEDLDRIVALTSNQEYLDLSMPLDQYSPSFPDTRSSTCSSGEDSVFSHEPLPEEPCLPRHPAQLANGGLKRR

T1 sequence (P22607 23-806): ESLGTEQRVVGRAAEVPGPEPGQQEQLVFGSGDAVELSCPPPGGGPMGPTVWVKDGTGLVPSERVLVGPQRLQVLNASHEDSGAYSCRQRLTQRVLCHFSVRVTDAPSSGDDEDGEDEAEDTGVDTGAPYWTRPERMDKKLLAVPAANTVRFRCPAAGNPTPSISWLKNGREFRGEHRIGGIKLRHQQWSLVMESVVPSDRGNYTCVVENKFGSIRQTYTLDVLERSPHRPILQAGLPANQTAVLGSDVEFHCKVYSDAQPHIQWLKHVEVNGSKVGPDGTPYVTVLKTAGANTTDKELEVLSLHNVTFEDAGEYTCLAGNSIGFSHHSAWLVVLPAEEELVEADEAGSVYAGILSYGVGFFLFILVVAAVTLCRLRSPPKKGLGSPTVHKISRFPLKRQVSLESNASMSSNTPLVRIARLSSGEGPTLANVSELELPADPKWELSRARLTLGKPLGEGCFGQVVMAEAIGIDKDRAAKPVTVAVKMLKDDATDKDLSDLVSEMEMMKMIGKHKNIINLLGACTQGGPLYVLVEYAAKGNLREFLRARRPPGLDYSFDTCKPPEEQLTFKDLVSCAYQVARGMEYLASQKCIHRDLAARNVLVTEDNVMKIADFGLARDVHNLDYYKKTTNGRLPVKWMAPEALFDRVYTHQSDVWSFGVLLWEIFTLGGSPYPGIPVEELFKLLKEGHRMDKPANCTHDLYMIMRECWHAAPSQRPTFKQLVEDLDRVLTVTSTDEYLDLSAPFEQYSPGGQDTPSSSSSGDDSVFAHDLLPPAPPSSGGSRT

| Kd [1] [nM] | Kd [2] [nM] | Kd [3] [nM] | Kd [4] [nM] | SMILES |
| --- | --- | --- | --- | --- |
| 100 to 250 | 0.1 to 100 | 250 to 1000 | 100 to 250 | COc1cc2[nH]nc(-c3cc(C#N)cc(C4CC4)c3)c2cc1O[C@H](C)c1c(C)cnnc1C [Example 117, (R)-3-cyclopropyl-5-(5-(1-(3,5-dimethylpyridazin-4-yl)ethoxy)-6-methoxy-1H-indazol-3-yl)benzonitrile] |
| 0.1 to 100 | 0.1 to 100 | 0.1 to 100 | 0.1 to 100 | Cc1cc(-c2n[nH]c3ccc(O[C@H](C)c4c(C)cnnc4C)cc23)cc(C#N)c1OC1CCN(C2CCC2)CC1 [Example 120, (R)-2-((1-cyclobutylpiperidin-4-yl)oxy)-5-(5-(1-(3,5-dimethylpyridazin-4-yl)ethoxy)-1H-indazol-3-yl)-3-methylbenzonitrile] |
| 0.1 to 100 | 0.1 to 100 | 0.1 to 100 | 0.1 to 100 | CCN1CCC2(CCc3cc(-c4n[nH]c5ccc(O[C@H](C)c6c(Cl)cncc6Cl)cc45)ccc3O2)CC1 [Example 121, 6-[5-[(1R)-1-(3,5-dichloro-4-pyridyl)ethoxy]-1H-indazol-3-yl]-1′-ethylspiro[chromane-2,4′-piperidine]] |
| 0.1 to 100 | 0.1 to 100 | 0.1 to 100 | 0.1 to 100 | C[C@@H](Oc1ccc2[nH]nc(-c3cnc(OCC(C)(C)O)c(C#N)c3)c2c1)c1c(Cl)cncc1Cl [Example 122, 5-[5-[(1R)-1-(3,5-dichloro-4-pyridyl)ethoxy]-1H-indazol-3-yl]-2-(2-hydroxy-2-methyl-propoxy)pyridine-3-carbonitrile] |
| 0.1 to 100 | 0.1 to 100 | 250 to 1000 | 250 to 1000 | COc1cc(-c2n[nH]c3ccc(O[C@H](C)c4c(Cl)cnc(F)c4Cl)cc23)cc2c1OC1(CCN(C(C)C)CC1)OC2 [Example 123, (R)-6-(5-(1-(3,5-dichloro-2-fluoropyridin-4-yl)ethoxy)-1H-indazol-3-yl)-1′-isopropyl-8-methoxy-4H-spiro[benzo[d][1,3]dioxine-2,4′-piperidine]] |
| 0.1 to 100 | 0.1 to 100 | 0.1 to 100 | 0.1 to 100 | CC(C)N1CCC(Oc2ccc(-c3n[nH]c4ccc(O[C@H](C)c5c(Cl)cncc5Cl)cc34)cc2C#N)CC1 [Example 124, 5-[5-[(1R)-1-(3,5-dichloro-4-pyridyl)ethoxy]-1H-indazol-3-yl]-2-[(1-isopropyl-4-piperidyl)oxy]benzonitrile] |
| 0.1 to 100 | 0.1 to 100 | 0.1 to 100 | 0.1 to 100 | COc1cc(-c2n[nH]c3ccc(O[C@H](C)c4c(C)cnnc4C)cc23)cc2c1OC1(CCN(C(C)C)CC1)OC2 [Example 125, (R)-6-(5-(1-(3,5-dimethylpyridazin-4-yl)ethoxy)-1H-indazol-3-yl)-1′-isopropyl-8-methoxy-4H-spiro[benzo[d][1,3]dioxine-2,4′-piperidine]] |
| 250 to 1000 | 0.1 to 100 | > 1000 | 250 to 1000 | COc1cc(-c2n[nH]c3ccc(O[C@H](C)c4c(Cl)cncc4Cl)cc23)cc(C#N)c1OC1CCN(C(C)C)CC1 [Example 126, 5-[5-[(1R)-1-(3,5-dichloro-4-pyridyl)ethoxy]-1H-indazol-3-yl]-2-[(1-isopropyl-4-piperidyl)oxy]-3-methoxy-benzonitrile] |
| 0.1 to 100 | 0.1 to 100 | 0.1 to 100 | 100 to 250 | Cc1cnnc(C)c1[C@@H](C)Oc1ccc2[nH]nc(-c3cnc(O[C@H]4CCOC4)c(C#N)c3)c2c1 [Example 127, 5-(5-((R)-1-(3,5-dimethylpyridazin-4-yl)ethoxy)-1H-indazol-3-yl)-2-(((S)-tetrahydrofuran-3-yl)oxy)nicotinonitrile] |
| 0.1 to 100 | 0.1 to 100 | 100 to 250 | 100 to 250 | Cc1cnnc(C)c1[C@@H](C)Oc1ccc2[nH]nc(-c3cnc(O[C@@H]4CCOC4)c(C#N)c3)c2c1 [Example 128, 5-(5-((R)-1-(3,5-dimethylpyridazin-4-yl)ethoxy)-1H-indazol-3-yl)-2-(((R)-tetrahydrofuran-3-yl)oxy)nicotinonitrile] |
| 0.1 to 100 | 0.1 to 100 | 0.1 to 100 | 0.1 to 100 | C[C@@H](Oc1ccc2[nH]nc(-c3cnc(N[C@H]4CCOC4)c(C#N)c3)c2c1)c1c(Cl)cncc1Cl [Example 129, 5-(5-((R)-1-(3,5-dichloropyridin-4-yl)ethoxy)-1H-indazol-3-yl)-2-(((S)-tetrahydrofuran-3-yl)amino)nicotinonitrile] |

The remaining lines, values behind:

| SMILES | Kd [1] [nM] | Kd [2] [nM] | Kd [3] [nM] | Kd [4] [nM] |
| --- | --- | --- | --- | --- |
| COc1cc(-c2n[nH]c3ccc(O[C@H](C)c4c(Cl)cncc4Cl)cc23)cc(C#N)c1OC1CCNCC1 [Example 105, 5-[5-[(1R)-1-(3,5-dichloro-4-pyridyl)ethoxy]-1H-indazol-3-yl]-3-methoxy-2-(4-piperidyloxy)benzonitrile] | 250 to 1000 | 0.1 to 100 | > 1000 | > 1000 |
| CCN1CCC2(CC1)CC(O)c1cc(-c3n[nH]c4ccc(O[C@H](C)c5c(C)cnnc5C)cc34)ccc1O2 (stereo partly drawn) [Example 107, 6-(5-((R)-1-(3,5-dimethylpyridazin-4-yl)ethoxy)-1H-indazol-3-yl)-1′-ethylspiro[chroman-2,4′-piperidin]-4-ol] | 0.1 to 100 | 0.1 to 100 | 0.1 to 100 | 0.1 to 100 |
| COc1c(C)cc(-c2n[nH]c3ccc(O[C@H](C)c4c(Cl)cncc4Cl)cc23)cc1C#N [Example 108] | 0.1 to 100 | 0.1 to 100 | 250 to 1000 | 250 to 1000 |
| C[C@@H](Oc1ccc2[nH]nc(-c3cc(C#N)cc(C4CC4)c3)c2c1)c1c(Cl)cncc1Cl [Example 109, (R)-3-cyclopropyl-5-(5-(1-(3,5-dichloropyridin-4-yl)ethoxy)-1H-indazol-3-yl)benzonitrile] | 250 to 1000 | 0.1 to 100 | > 1000 | > 1000 |
| Cc1cc(-c2n[nH]c3ccc(O[C@H](C)c4c(C)cnnc4C)cc23)cc(C#N)c1OC1CCN(C(C)C)CC1 [Example 110, (R)-5-(5-(1-(3,5-dimethylpyridazin-4-yl)ethoxy)-1H-indazol-3-yl)-2-((1-isopropylpiperidin-4-yl)oxy)-3-methylbenzonitrile] | 0.1 to 100 | 0.1 to 100 | 0.1 to 100 | 0.1 to 100 |
| Cc1cc(-c2n[nH]c3ccc(O[C@H](C)c4c(C)cnnc4C)cc23)cc(C#N)c1OC1CCN(C2COC2)CC1 [Example 113, (R)-5-(5-(1-(3,5-dimethylpyridazin-4-yl)ethoxy)-1H-indazol-3-yl)-3-methyl-2-((1-(oxetan-3-yl)piperidin-4-yl)oxy)benzonitrile] | 0.1 to 100 | 0.1 to 100 | 0.1 to 100 | 0.1 to 100 |
| CCN1CCC(Oc2c(C)cc(-c3n[nH]c4ccc(O[C@H](C)c5c(C)cnnc5C)cc34)cc2C#N)CC1 [Example 115, (R)-5-(5-(1-(3,5-dimethylpyridazin-4-yl)ethoxy)-1H-indazol-3-yl)-2-((1-ethylpiperidin-4-yl)oxy)-3-methylbenzonitrile] | 0.1 to 100 | 0.1 to 100 | 0.1 to 100 | 0.1 to 100 |
| COc1cc2[nH]nc(-c3cc(C)c(OC)c(C#N)c3)c2cc1O[C@H](C)c1c(C)cnnc1C [Example 116, (R)-5-(5-(1-(3,5-dimethylpyridazin-4-yl)ethoxy)-6-methoxy-1H-indazol-3-yl)-2-methoxy-3-methylbenzonitrile] | 0.1 to 100 | 0.1 to 100 | 0.1 to 100 | 0.1 to 100 |
